In patent US20240033237A1, “USE OF A-KETOGLUTARATE IN MANUFACTURE OF MEDICAMENT” (TONGJI UNIVERSITY, priority 2019, published 2024):

System: chondrocytes
Assay: Amino acid content in chondrocytes upon IL-1β stimulation, LC-MS
Format: cell-based, mouse
Conditions: IL-1β treatment for 36 h, untreated 8740.24±584.31
Protocol: Mouse chondrocytes were obtained from 7-day-old C57BL/6 mice (Shanghai Slac laboratory animal Co., Ltd.), and the procedure was as follows: under aseptic surgical conditions, bilateral knee cartilages of C57 mice were carefully stripped and digested with 0.2% neutral collagenase (Serva, Germany) for 8 h; cell precipitates were obtained by centrifugation, and the cells were resuspended in modified Eagle medium (DMEM) (Gibco, USA) containing 10% FBS, inoculated in culture dishes, and cultured with high-sugar DMEM medium (containing 10% FBS, 100 U/mL penicillin and 100 mg/L streptomycin) at 37° C. in a 5% CO2 constant temperature incubator. The medium was changed for the first time at 48 h. […] The cells were collected by centrifugation and resuspended, and the concentration was adjusted for inoculation in culture dishes. The cells were subcultured by the above method, and the obtained cells were labeled as P1, P2, P3 generations, etc. […]
After being treated with IL-1β for 36 h, the chondrocytes were scraped off, and the changes of amino acid content in the chondrocytes were detected by LC-MS.

In the case of “IL-1β: interleukin-1β used to stimulate chondrocytes”, the “Gln content in chondrocytes” value was 330±150.32 ng/10^7.
